Experimental findings from US20250387458A1, “COACTIVE COMBINATIONS OF ANTIMICROBIALS WITH DISPERSINB” (KANE BIOTECH INC., priority 2020, published 2025) are described below.

The subject of assay [1] is S. epidermidis biofilm. In words: Inactivation of biofilm embedded bacteria using liquid buffer formulation (Method 1), S. epidermidis. The format is cell-based, Staphylococcus epidermidis. To be noted: for Biofilm inactivation: buffer formulation, antimicrobial tested with DspB; for Effect of DspB on activity of the antimicrobial against biofilm embedded S. epidermidis: buffer, antimicrobial plus DspB vs antimicrobial alone, P<0.05. The procedure:
(§1) Method 1: Method to Test Inactivation of Biofilm Embedded Bacteria Using Liquid Buffer Formulation
(§2) S. epidermidis or E. coli biofilm were each grown in 96-well plate and washed three times to remove planktonic cells. Then biofilm was treated using 50 mM phosphate or citrate buffer, (no treatment control), buffer solutions containing DspB at 10-200 μg/ml, buffer solution containing antimicrobial alone, and buffer solution DspB plus antimicrobial for varying exposure times (10 min-3 h). After treatments, biofilm embedded bacteria was dispersed, diluted serially and plated on Tryptic soy agar plates. Data was analyzed using ANOVA and Tukey's test.

Assay [2] deals with DspB. In words: Compatibility between antimicrobials or antibiotics and DspB in gel, enzymatic assay (Method 6). The format is biochemical, Aggregatibacter actinomycetemcomitans. The settings on record: for Enzymatic activity of DspB in the presence of the antimicrobial compared with DspB control: P≤0.05, carvacrol and cinnamaldehyde at 0-30 min, chloroxylenol at 5, 10, 20 and 60 min. The procedure:
Method 6: Method to Test Compatibility Between Antimicrobials or Antibiotics and DspB in Gel Using Enzymatic Assay
DspB gel containing 200 μg/ml DspB, 16% […] (PF127), 50 mM Phosphate buffer or citrate, 100 mM NaCl, pH 5.9, and 2× concentrated antimicrobial agent/antibiotics in 16% Poloxamer 405, 50 mM Phosphate buffer, 100 mM NaCl, pH 5.9 were mixed in equal proportions. 4×5 μL aliquots were withdrawn at 0, 5, 10, 20, 30, 60, and 120 min for measurement of DspB enzymatic activity. DspB enzymatic activity was measured using β-N-acetylglucosaminidase assay kit from Sigma (product code CS0780) in 96-well microtiter plate following the manufacturer's instructions. The plate was incubated for 30 minutes before terminating the reaction. Data analysis was done in Excel. Student T test (paired) was performed for each time point separately using DspB activity in mixture and in control sample as two set of variables. […]

The subject of assay [3] is S. epidermidis biofilm. In words: Biofilm dispersal by DspB gel formulations (Method 5). The format is cell-based, Staphylococcus epidermidis. The settings on record: for Biofilm dispersal of gel containing DspB and antimicrobial compared with gel containing DspB alone: PF127 gel, 20 μg/ml DspB. On the procedure:
Method 5: Method to Test Biofilm Dispersal by DspB Gel Formulations
S. epidermidis biofilm was grown in 96-well plate and washed three times to remove planktonic cells. Then biofilm was treated using different DspB formulations appropriate treatment duration (10 min-1 h). After treatments, gels were removed and washed 3 times with sterile distilled water to remove excess gel and dispersed biofilm. Remaining biofilms in 96-well plates were stained using Crystal violet and unbound crystal violet was removed by washing the wells with sterile water, the biofilm bound crystal violet was eluted using 33% acetic acid, and the absorbance at 620 nm was taken using a microwell plate reader.
Gels containing DspB and selected concentrations of antimicrobials were formulated in 50 mM phosphate buffer or citrate buffer containing 16% PF127. DspB gel and antimicrobial gel were mixed together and incubated at 37° C. for 2 h. Biofilm dispersal was performed at 0 and 2 h using biofilm dispersal assay (Method 5). Blank gel, DspB gel and antimicrobial gels were included as controls.

Assay [4] relates to E. coli biofilm. In words: Inactivation of biofilm embedded bacteria using liquid buffer formulation (Method 1), E. coli. The format is cell-based, Escherichia coli. The settings on record: antimicrobial plus DspB vs antimicrobial alone. On the procedure:
as §1, §2

Assay [5] deals with S. epidermidis biofilm. In words: Compatibility between antimicrobials or antibiotics and DspB, biofilm dispersal assay in buffer (Method 3). The format is cell-based, Staphylococcus epidermidis. The settings on record: for Biofilm dispersal when DspB and antimicrobial were added together: 20 μg/ml DspB, mixture used at 0 and 2 h, 10 min treatment. The procedure:
Method 3: Method to Test Compatibility Between Antimicrobials or Antibiotics and DspB Using Biofilm Dispersal Assay
S. epidermidis biofilm was grown in 96-well plate and washed three times using sterile water to remove planktonic cells. Antimicrobials or antibiotics and DspB formulations were prepared in 50 mM phosphate or citrate buffer and stored at 37° C. for 2 h and used for treating biofilm at 0 and 2 h. Biofilm was treated using antimicrobials or antibiotics and DspB formulations for 10 min. After treatments, solutions were removed and washed 3 times to remove dispersed biofilm. Remaining biofilms in 96-well plates were stained using Crystal violet, unbound crystal violet was removed by washing the wells with sterile water, the biofilm bound crystal violet was eluted using 33% acetic acid, and the absorbance at 620 nm was taken using a microwell plate reader. Percent biofilm removal was calculated. Data was analyzed using ANOVA and Tukey's test.

Assay [6] has as its system DspB. In words: Compatibility between antimicrobials or antibiotics and DspB, enzymatic assay in buffer (Method 4). The format is biochemical, Aggregatibacter actinomycetemcomitans. The procedure: Method 4: Method to Test Compatibility Between Antimicrobials or Antibiotics and DspB Using Enzymatic Assay
DspB (200 μg/mL) and antimicrobial agent/antibiotic stocks were prepared in respective buffers. 10 mM paranitrophenol (PNP) in 400 mM sodium carbonate, and the buffer (same DspB stock) was used as the standard solution, and negative control, respectively. DspB stock and antimicrobial stock were mixed in equal proportions, and then 4×5 μl samples were taken at defined time points (0, 5, 10, 20, 30, 60, and 120 min) and used to measure the DspB enzyme activity. DspB enzymatic activity was measured using β-N-Acetylglucosaminidase assay kit from Sigma (product code CS0780) in 96-well microtiter plate following the manufacturer's instructions. The plate was incubated for 30 minutes before terminating the reaction. Data analysis was done in Excel. Student T test (paired) was performed for each time point separately using DspB activity in mixture and in control sample as two set of variables.

Where [7] appears, read: gel formulation, 100 μg/ml DspB.

“Also recorded” adds a separate entry of the source. Where a name gives a salt, the structure may show the parent alone. Positions of bridges follow the written chain, without caps; N, C: chain ends. Non-standard residues stand in square brackets, D forms with d. Residues, ends and D or L forms follow the SMILES beside them. ξ: configuration not given here. *: point of attachment. X1 = CC[C@H](C)CCCCC(=O)*; dDab = NCC[C@@H](N)C(=O)O; Dab = NCC[C@H](N)C(=O)O; ξDab = NCCC(N)C(=O)O

`C=CC(C)(O)CCC=C(C)CCC=C(C)C` (centres unmarked) [Nerolidol]: the Biofilm inactivation in assay [1] is reported as <0.5 log log CFU.
As for `C/C(=C\C(=O)OCCCCCCCCC(=O)O)C[C@@H]1OC[C@H](C[C@@H]2O[C@H]2[C@@H](C)[C@H](C)O)[C@@H](O)[C@H]1O` [Mupirocin], in assay [2] (setting [7]), the “Synergy or compatibility with DspB, E: enzymatic” value is “E: synergy”. For the same compound, in assay [2] (wound gel, for up to 2 h, relative to 100 μg/mL DspB control), the “DspB activity in the presence of the antimicrobial, enzymatic assay” value is reported as > 100%.
For the compound `CC[C@H](C)CCCCC(=O)N[C@@H](CCN)C(=O)N[C@H](C(=O)NC(CCN)C(=O)N[C@H]1CCNC(=O)[C@H]([C@@H](C)O)NC(=O)[C@H](CCN)NC(=O)[C@H](CCN)NC(=O)[C@H](CC(C)C)NC(=O)[C@@H](Cc2ccccc2)NC(=O)[C@@H](CCN)NC1=O)[C@@H](C)O` (some centres unmarked) [Polymyxin B sulfate] (X1-[Dab]T[ξDab][Dab][dDab][dF]L[Dab][Dab]T; lactam 4-C), the “Synergy or compatibility with DspB, E: enzymatic” value in assay [2] (setting [7]) is on record as “E: compatible”. For the same compound, the “Biofilm dispersal of gel containing DspB and antimicrobial compared with gel containing DspB alone” value in assay [3] is reported as “similar”.
In the case of `Cc1ccc(C(C)C)cc1O` [Carvacrol], the “Effect of DspB on activity of the antimicrobial against biofilm embedded E. coli” value (from here on “Effect … against biofilm embedded E. coli”) in assay [4] (P<0.05) is reported as “enhanced”. Moreover, the “Biofilm dispersal when DspB and antimicrobial were added together” value in assay [5] (buffer) was ≥ 73%. In assay [2], the “Synergy or compatibility with DspB, E: enzymatic” value is on record as “E: synergy”. Also, the “Enzymatic activity of DspB in the presence of the antimicrobial compared with DspB control” value in assay [2] (wound gel) was “Higher enzymatic activity”. Besides, in assay [1], the Biofilm inactivation is listed as >5 log log CFU and the “Effect of DspB on activity of the antimicrobial against biofilm embedded S. epidermidis” value (“Effect … against biofilm embedded S. epidermidis” below) is reported as “enhanced”. In addition, in assay [6], the “Synergy or compatibility with DspB, E: enzymatic” value is reported as “E: synergy”. Also, in assay [3], the “Synergy or compatibility with DspB, M: microbiological (biofilm dispersal assay; biofilm inactivation not tested)” value is given as “M: compatible”; the “Biofilm dispersal of gel containing DspB and antimicrobial compared with gel containing DspB alone” value is “similar”.
Regarding `CCCCCCCCN=c1ccn(CCCCCCCCCCn2ccc(=NCCCCCCCC)cc2)cc1.Cl.Cl` [Octenidine dihydrochloride, octenidine dihydrochloride], the “Effect … against biofilm embedded E. coli” value in assay [4] (P<0.05, dihydrochloride) is listed as “enhanced activity”; in assay [4] (P<0.05, listed as ODC, dihydrochloride), “enhanced”. For the same compound, in assay [5] (biofilms treated for 10 min, data not presented), the “Biofilm dispersal when 20 μg/ml DspB was mixed with the antimicrobial” value is “no biofilm dispersal was observed”. The “Biofilm dispersal when DspB and antimicrobial were added together for 2 h” value in assay [5] (buffer, 100 μg/ml DspB, 0.01% ODC) is “minimal biofilm dispersal”. Further, in assay [2] (setting [7]), the “Synergy or compatibility with DspB, E: enzymatic” value is “E: compatible”. In assay [1], the Biofilm inactivation is >5 log log CFU. Also, the “Effect … against biofilm embedded S. epidermidis” value in assay [1] (dihydrochloride) is “enhanced activity”; in assay [1] (listed as ODC, dihydrochloride), “enhanced”. Also, the “Biofilm dispersal of gel containing DspB and antimicrobial compared with gel containing DspB alone” value in assay [3] is listed as “similar”.
As for `CNC1C(O)[C@@H](O[C@H]2C(N)C[C@H](N)C(O[C@H]3OC([C@@H](C)N)CCC3N)C2O)OC[C@]1(C)O` (some centres unmarked) [Gentamicin sulfate], in assay [2] (setting [7]), the “Synergy or compatibility with DspB, E: enzymatic” value is on record as “E: compatible”. Moreover, in assay [3], the “Biofilm dispersal of gel containing DspB and antimicrobial compared with gel containing DspB alone” value is recorded as “similar”.
`CCCCCCCCCCCCCCCC[n+]1ccccc1.[Cl-]` [Cetylpyridinium chloride]: the “Synergy or compatibility with DspB, E: enzymatic” value is “E: compatible” in assay [2] and “E: no synergy” in assay [6].
For the compound `Cc1ccc(C(C)C)c(O)c1` [Thymol], in assay [1], the Biofilm inactivation is given as >5 log log CFU and the “Effect … against biofilm embedded S. epidermidis” value was “enhanced”.
In the case of Benzalkonium chloride, the “Synergy or compatibility with DspB, M: microbiological (biofilm dispersal assay; biofilm inactivation not tested)” value in assay [5] is recorded as “M: no synergy”; in assay [3], “M: compatible”. Also, the “Synergy or compatibility with DspB, E: enzymatic” value in assay [2] is on record as “E: compatible”; in assay [6] it was “E: no synergy”.
On to `O=C(O)C=Cc1ccccc1` [Cinnamic acid], for which, in assay [1], the Biofilm inactivation was <0.5 log log CFU and the “Effect … against biofilm embedded S. epidermidis” value is “did not show any enhancement”.
On to `COc1ccc2cc3[n+](cc2c1OC)CCc1cc2c(cc1-3)OCO2` [Berberine hydrochloride], for which the “Effect … against biofilm embedded S. epidermidis” value in assay [1] (hydrochloride) was “no synergistic activity”; in assay [1] (listed as berberine hydrochloride, hydrochloride) it was “did not enhance activity; also recorded: antagonism”.
For `CC(C)=CCC/C(C)=C\CO` [Nerol], the Biofilm inactivation in assay [1] is reported as <0.5 log log CFU.
On to `CC(=O)CC/C=C(\C)CCC=C(C)C` [Geranyl acetone], for which, in assay [1], the Biofilm inactivation was <0.5 log log CFU.
Regarding `Cc1cc(O)cc(C)c1Cl` [Chloroxylenol], the “Biofilm dispersal when DspB and antimicrobial were added together” value in assay [5] (buffer) is ≥ 74%. In addition, in assay [1], the Biofilm inactivation is given as >5 log log CFU.
For `CCCCC(CC)CNC(=N)NC(=N)NCCCCCCNC(=N)NC(=N)NCC(CC)CCCC` (centres unmarked) [Alexidine, Alexidine dihydrochloride], in assay [1], the Biofilm inactivation is reported as >5 log log CFU and the “Effect … against biofilm embedded S. epidermidis” value is on record as “enhanced”.
For Nisin, in assay [1], the Biofilm inactivation is <0.5 log log CFU.
Consider `Cc1ncc([N+](=O)[O-])n1CCO` [Metronidazole], for which the “Synergy or compatibility with DspB, E: enzymatic” value in assay [2] (setting [7]) is given as “E: compatible”. Moreover, the “Biofilm dispersal of gel containing DspB and antimicrobial compared with gel containing DspB alone” value in assay [3] was “similar”.
With `O=C/C=C/c1ccccc1` [Cinnamaldehyde], the “Effect … against biofilm embedded E. coli” value in assay [4] (P<0.05) is on record as “enhanced”. Further, the “Biofilm dispersal when DspB and antimicrobial were added together” value in assay [5] (buffer) is given as ≥ 78%. Moreover, the “Synergy or compatibility with DspB, E: enzymatic” value in assay [2] (setting [7]) is listed as “E: synergy”. For the same compound, in assay [2] (wound gel), the “Enzymatic activity of DspB in the presence of the antimicrobial compared with DspB control” value was “Higher enzymatic activity”. Also, the “Effect … against biofilm embedded S. epidermidis” value in assay [1] is “enhanced”. Further, the “Biofilm dispersal of gel containing DspB and antimicrobial compared with gel containing DspB alone” value in assay [3] is “similar”.
As for BisEDT, in assay [1], the Biofilm inactivation is <1 log log CFU.
